BigSolDB 2.1

O=C(OCCO)c1ccc(C(=O)OCCO)cc1
solubility (mole fraction)
Conditions	283.15 K	288.15 K	293.15 K	298.15 K	303.15 K	308.15 K	313.15 K	318.15 K	323.15 K	328.15 K
in ethanol	0.000577	0.000802	0.00113	0.00141	0.00169	0.00249	0.00315	0.00395	0.00521	0.00656
in ethylene glycol	0.000174	0.000264	0.000391	0.000554	0.000859	0.00118	0.0018	0.00255	0.0037	0.00499
in methanol	0.000772	0.00104	0.00142	0.00184	0.00238	0.00329	0.00404	0.00517	0.00656	0.00815
in water	1.7e-05	2.4e-05	3.2e-05	4.2e-05	5.8e-05	7.7e-05	9.6e-05	0.000132	0.000171	0.000221
